We go through 1 compound from PMC9885526 (ACS Central Science, 2023).

The experiment deals with SARS-CoV-2 (Omicron variant). Briefly: microbe, parasite or virus in culture. Format: cell-based. To be noted: Severe acute respiratory syndrome coronavirus 2, Caco-2.

By EC50 is commonly meant the concentration needed to bring the measured effect to its halfway point. A high value points to a less potent agent. Turning to `CC(C)(C)[C@H](NC(=O)C(F)(F)F)C(=O)N1C[C@H]2[C@@H]([C@H]1C(=O)N[C@H](C#N)C[C@@H]1CCNC1=O)C2(C)C` [PF-07321332, Nirmatrelvir], the EC50 was determined as 33 nM.
